According to patent publication US9687550B2, “Compositions for nucleic acid delivery” (Arbutus Biopharma Corporation, priority 2009, dated 2017):

Assay: pKa of lipid
Assay type: physicochemical

Compound: CCCCCCCCCCCCCCCCCCC(CCCCCCCCCCCCCCCCCC)OC(=O)CCCN(C)C [compound 111]
- pKa: > 7.4
